Assay results from PubChem BioAssay AID1117338.
The source made the active and inactive calls. No rule for the calls is given here.

Tested on: SW480 viability, CellTiter-Glo luminescence
Assay: 50% inhibitory concentration in SW480 colon cancer line, survival by CellTiter-Glo luminescence, dose-dependent response (AID 1117338)

Structure (SMILES) | IC50
Cc1ccc([N+](=O)[O-])[c]2c1[O][Hg]2 | 1130 nM
O=C1[O][Bi][O]c2ccccc21 | > 20000 nM (inactive)
OCCN1CCN(CC/C=C2/c3ccccc3Sc3ccc(C(F)(F)F)cc32)CC1 | 3930 nM
O=C(O)C1(C(=O)O)CCC1.[NH2-].[NH2-].[Pt+2] | > 20000 nM (inactive)
O=Cc1ccc(O)c(O)c1O | 11300 nM (inactive)
CC(=O)[O][Hg][c]1ccccc1 | 543 nM
Cn1cnc([N+](=O)[O-])c1Sc1ncnc2nc[nH]c12 | 9440 nM (inactive)
CCCCCCCCCCCCCC[N+](C)(C)C | 933 nM
